Data published in publication PMC4129416, “YLT192, a Novel, Orally Active Bioavailable Inhibitor of VEGFR2 Signaling with Potent Antiangiogenic Activity and Antitumor Efficacy in Preclinical Models” (Scientific Reports, 2014).
Several values for one entry are separate records, joined by “and”; a condition that tells them apart may be missing. Equal values may be shown once. Read-outs that look alike come from different tables or passages of the source.

Tests used:
[1] = target: T1, FGFR2 (Homo sapiens, UniProt P21802); test: Radiometric kinase assay (Millipore Kinase Profile Service); type: biochemical; conditions: means ± SD, two independent experiments, read-out: inhibition rate at 1 μM (%)
T1 construct: purchased Millipore (Kinase Profile Service, UK)
Protocol: (§1) YLT192 was designed and synthesized in the State Key Laboratory of Biotherapy, Sichuan University (Sichuan, China). Its structural formula and synthesis route was shown in Fig. 1A and Supplementary Figure S1, respectively. The kinase inhibitory activity of YLT192 was measured by the use of radiometric assays provided by Kinase Profile Service (Millipore, UK). The effects of YLT192 on kinase activity were detected using the scintillation proximity assay method at an enzymatic level. […] In addition, the inhibitory activity of YLT192 was examined against platelet-derived growth factor receptor (PDGFR)-related kinases because of their structural similarity to the VEGFR2. […] Moreover, excellent selectivity for VEGFR2 was evident compared with a range of unrelated tyrosine and serine/threonine kinases, including fibroblast growth factor receptor 3, polo-like kinase 1, aurora-A, Axl, MET, protein kinase A, c-RAF etc.

[2] = target: T2, Met (Homo sapiens, UniProt P08581); test: as above; type: biochemical; conditions: means ± SD, two independent experiments, read-out: inhibition rate at 1 μM (%)
T2 construct: purchased Millipore (Kinase Profile Service, UK)
Protocol: as §1

[3] = target: T3, JAK3 (Homo sapiens, UniProt P52333); test: as above; type: biochemical; conditions: means ± SD, two independent experiments, read-out: inhibition rate at 1 μM (%)
T3 construct: purchased Millipore (Kinase Profile Service, UK)
Protocol: as §1

[4] = target: T4, Axl (Homo sapiens, UniProt P30530); test: as above; type: biochemical; conditions: means ± SD, two independent experiments, read-out: inhibition rate at 1 μM (%)
T4 construct: purchased Millipore (Kinase Profile Service, UK)
Protocol: as §1

[5] = target: T5, PKA (Homo sapiens, UniProt P17612); test: as above; type: biochemical; conditions: means ± SD, two independent experiments, read-out: inhibition rate at 1 μM (%)
T5 construct: purchased Millipore (Kinase Profile Service, UK)
Protocol: as §1

[6] = target: T6, CDK2/cyclinE (Homo sapiens, UniProt P24941); test: as above; type: biochemical; conditions: means ± SD, two independent experiments, read-out: inhibition rate at 1 μM (%)
T6 construct: purchased Millipore (Kinase Profile Service, UK)
Protocol: as §1

[7] = system: PI3K; test: as above; type: biochemical; conditions: means ± SD, two independent experiments
Protocol: as §1

[8] = target: T7, FGFR1 (Homo sapiens, UniProt P11362); test: as above; type: biochemical; conditions: means ± SD, two independent experiments, read-out: inhibition rate at 1 μM (%)
T7 construct: purchased Millipore (Kinase Profile Service, UK)
Protocol: as §1

[9] = target: T8, Plk1 (Homo sapiens, UniProt P53350); test: as above; type: biochemical; conditions: means ± SD, two independent experiments, read-out: inhibition rate at 1 μM (%)
T8 construct: purchased Millipore (Kinase Profile Service, UK)
Protocol: as §1

[10] = target: T9, cKit (Homo sapiens, UniProt P10721); test: as above; type: biochemical; conditions: means ± SD, two independent experiments, read-out: inhibition rate at 1 μM (%)
T9 construct: purchased Millipore (Kinase Profile Service, UK)
Protocol: as §1

[11] = target: T10, mTOR (Homo sapiens, UniProt P42345); test: as above; type: biochemical; conditions: means ± SD, two independent experiments, read-out: inhibition rate at 1 μM (%)
T10 construct: purchased Millipore (Kinase Profile Service, UK)
Protocol: as §1

[12] = target: T11, GSK3β (Homo sapiens, UniProt P49841); test: as above; type: biochemical; conditions: means ± SD, two independent experiments, read-out: inhibition rate at 1 μM (%)
T11 construct: purchased Millipore (Kinase Profile Service, UK)
Protocol: as §1

[13] = target: T12, JNK3 (Homo sapiens, UniProt P53779); test: as above; type: biochemical; conditions: means ± SD, two independent experiments, read-out: inhibition rate at 1 μM (%)
T12 construct: purchased Millipore (Kinase Profile Service, UK)
Protocol: as §1

[14] = target: T13, IR (Homo sapiens, UniProt P06213); test: as above; type: biochemical; conditions: means ± SD, two independent experiments, read-out: inhibition rate at 1 μM (%)
T13 construct: purchased Millipore (Kinase Profile Service, UK)
Protocol: as §1

[15] = target: T14, EGFR (Homo sapiens, UniProt P00533); test: as above; type: biochemical; conditions: means ± SD, two independent experiments, read-out: inhibition rate at 1 μM (%)
T14 construct: purchased Millipore (Kinase Profile Service, UK)
Protocol: as §1

[16] = target: T15, Fms (Homo sapiens, UniProt P07333); test: as above; type: biochemical; conditions: means ± SD, two independent experiments, read-out: inhibition rate at 1 μM (%)
T15 construct: purchased Millipore (Kinase Profile Service, UK)
Protocol: as §1

[17] = target: T16, Flt3 (Homo sapiens, UniProt P36888); test: as above; type: biochemical; conditions: means ± SD, two independent experiments
T16 construct: purchased Millipore (Kinase Profile Service, UK)
Protocol: as §1

[18] = target: T17, c-RAF (Homo sapiens, UniProt P04049, Y340D/Y341D); test: as above; type: biochemical; conditions: means ± SD, two independent experiments, read-out: inhibition rate at 1 μM (%)
T17 construct: purchased Millipore (Kinase Profile Service, UK)
Protocol: as §1

[19] = target: T18, ALK (Homo sapiens, UniProt Q9UM73); test: as above; type: biochemical; conditions: means ± SD, two independent experiments, read-out: inhibition rate at 1 μM (%)
T18 construct: purchased Millipore (Kinase Profile Service, UK)
Protocol: as §1

[20] = target: T19, Aurora-A (Homo sapiens, UniProt O14965); test: as above; type: biochemical; conditions: means ± SD, two independent experiments, read-out: inhibition rate at 1 μM (%)
T19 construct: purchased Millipore (Kinase Profile Service, UK)
Protocol: as §1

[21] = target: T20, PDGFRα (Homo sapiens, UniProt P16234); test: as above; type: biochemical; conditions: means ± SD, two independent experiments, read-out: inhibition rate at 1 μM (%)
T20 construct: purchased Millipore (Kinase Profile Service, UK)
Protocol: as §1

[22] = target: T21, PDGFRβ (Homo sapiens, UniProt P09619); test: as above; type: biochemical; conditions: means ± SD, two independent experiments, read-out: inhibition rate at 1 μM (%)
T21 construct: purchased Millipore (Kinase Profile Service, UK)
Protocol: as §1

[23] = target: T22, IKKβ (Homo sapiens, UniProt O14920); test: as above; type: biochemical; conditions: means ± SD, two independent experiments, read-out: inhibition rate at 1 μM (%)
T22 construct: purchased Millipore (Kinase Profile Service, UK)
Protocol: as §1

[24] = target: T23, FGFR3 (Homo sapiens, UniProt P22607); test: as above; type: biochemical; conditions: means ± SD, two independent experiments, read-out: inhibition rate at 1 μM (%)
T23 construct: purchased Millipore (Kinase Profile Service, UK)
Protocol: as §1

[25] = target: T24, Ret (Homo sapiens, UniProt P07949); test: as above; type: biochemical; conditions: means ± SD, two independent experiments, read-out: inhibition rate at 1 μM (%)
T24 construct: purchased Millipore (Kinase Profile Service, UK)
Protocol: as §1

[26] = target: T25, CDK6/cyclinD3 (Homo sapiens, UniProt Q00534); test: as above; type: biochemical; conditions: means ± SD, two independent experiments, read-out: inhibition rate at 1 μM (%)
T25 construct: purchased Millipore (Kinase Profile Service, UK)
Protocol: as §1

[27] = target: T26, LCK (Homo sapiens, UniProt P06239); test: as above; type: biochemical; conditions: means ± SD, two independent experiments, read-out: inhibition rate at 1 μM (%)
T26 construct: purchased Millipore (Kinase Profile Service, UK)
Protocol: as §1

[28] = target: T27, Aurora-B (Homo sapiens, UniProt Q96GD4); test: as above; type: biochemical; conditions: means ± SD, two independent experiments, read-out: inhibition rate at 1 μM (%)
T27 construct: purchased Millipore (Kinase Profile Service, UK)
Protocol: as §1

[29] = system: HCT116 tumor xenografts; test: Immunohistochemistry of HCT116 xenograft tumor sections (CD31, Ki67, p-p44/42 MAPK, TUNEL); type: in vivo, mice
Protocol: To better understand the mechanism of antitumor activities in vivo, immunohistochemistry was performed using tumor tissues isolated from HCT116 at the end of the treatment. […] Furthermore, we investigated the activity of YLT192 on apoptosis in HCT116 xenograft tumors by terminal deoxynucleotidyl transferase (dUTP) nick end labeling (TUNEL) staining.
Tumour tissues obtained from the mice bearing HCT116 tumors were subjected to immunohistological analysis. Briefly, at the end of the treatment, mice were killed and tumor tissues were obtained. Then CD31 staining was conducted using frozen sections of tissue embedded in optimum cutting temperature[49] and immunohistological detection of anti-Ki67 and p-p44/42 MAPK were performed according to the manufacture's instructions using paraffin-embedded sections of tumor[50]. Apoptotic cells in the tumor tissue were detected by terminal deoxynucleotidyl transferase-mediated dUTP nick end-labeling (TUNEL) staining using an apoptotic cell detection kit (Merck Millipore).

[30] = system: tumor cells; test: Cancer cell viability assays, whole panel; type: cell-based

T16 sequence (P36888 27-993): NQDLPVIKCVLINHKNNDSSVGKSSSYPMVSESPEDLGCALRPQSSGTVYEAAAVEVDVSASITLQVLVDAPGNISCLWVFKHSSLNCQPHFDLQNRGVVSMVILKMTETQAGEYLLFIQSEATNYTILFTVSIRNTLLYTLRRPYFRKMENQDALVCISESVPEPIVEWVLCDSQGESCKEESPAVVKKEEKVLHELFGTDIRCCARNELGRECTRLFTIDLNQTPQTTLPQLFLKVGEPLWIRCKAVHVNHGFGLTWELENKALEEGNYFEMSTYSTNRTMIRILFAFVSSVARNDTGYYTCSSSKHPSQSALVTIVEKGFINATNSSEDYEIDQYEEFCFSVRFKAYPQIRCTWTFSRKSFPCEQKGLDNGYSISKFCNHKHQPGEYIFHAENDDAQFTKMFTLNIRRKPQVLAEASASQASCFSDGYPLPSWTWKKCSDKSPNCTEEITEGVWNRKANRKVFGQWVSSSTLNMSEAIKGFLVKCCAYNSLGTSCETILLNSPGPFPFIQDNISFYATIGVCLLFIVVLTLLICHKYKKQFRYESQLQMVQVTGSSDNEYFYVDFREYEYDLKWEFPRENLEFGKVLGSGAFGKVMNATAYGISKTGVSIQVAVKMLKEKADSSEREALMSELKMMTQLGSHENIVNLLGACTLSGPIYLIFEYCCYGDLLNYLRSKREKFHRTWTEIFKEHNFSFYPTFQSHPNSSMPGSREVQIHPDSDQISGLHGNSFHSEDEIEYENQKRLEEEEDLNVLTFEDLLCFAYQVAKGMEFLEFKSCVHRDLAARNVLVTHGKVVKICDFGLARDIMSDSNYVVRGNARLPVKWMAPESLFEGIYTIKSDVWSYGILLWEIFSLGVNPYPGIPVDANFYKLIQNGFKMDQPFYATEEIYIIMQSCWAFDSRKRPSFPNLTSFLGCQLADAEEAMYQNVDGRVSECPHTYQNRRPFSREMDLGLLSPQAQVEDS
T4 sequence (P30530 26-894): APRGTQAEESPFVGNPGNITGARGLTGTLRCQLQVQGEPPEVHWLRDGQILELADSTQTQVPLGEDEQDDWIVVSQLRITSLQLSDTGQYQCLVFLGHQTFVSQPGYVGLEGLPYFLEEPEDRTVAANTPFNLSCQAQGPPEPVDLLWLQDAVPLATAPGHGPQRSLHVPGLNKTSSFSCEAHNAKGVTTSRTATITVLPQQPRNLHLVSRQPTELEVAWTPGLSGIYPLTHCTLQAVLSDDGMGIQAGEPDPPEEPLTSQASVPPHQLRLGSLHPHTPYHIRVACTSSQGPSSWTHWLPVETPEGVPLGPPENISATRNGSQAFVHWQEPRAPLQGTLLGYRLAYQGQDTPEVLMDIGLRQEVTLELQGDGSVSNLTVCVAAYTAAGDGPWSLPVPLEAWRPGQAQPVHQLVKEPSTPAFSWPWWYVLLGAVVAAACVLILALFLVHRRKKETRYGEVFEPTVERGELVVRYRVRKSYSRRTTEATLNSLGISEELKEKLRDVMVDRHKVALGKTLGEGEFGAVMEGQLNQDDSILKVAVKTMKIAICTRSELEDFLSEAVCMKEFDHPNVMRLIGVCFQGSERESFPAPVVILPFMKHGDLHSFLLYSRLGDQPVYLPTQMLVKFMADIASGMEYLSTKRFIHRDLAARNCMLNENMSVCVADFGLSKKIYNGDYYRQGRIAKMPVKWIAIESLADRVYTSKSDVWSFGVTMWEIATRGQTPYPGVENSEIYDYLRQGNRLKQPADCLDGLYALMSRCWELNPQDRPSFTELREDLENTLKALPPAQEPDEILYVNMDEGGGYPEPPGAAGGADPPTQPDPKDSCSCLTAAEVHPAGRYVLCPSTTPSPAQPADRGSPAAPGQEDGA
T22 sequence (O14920 whole entry): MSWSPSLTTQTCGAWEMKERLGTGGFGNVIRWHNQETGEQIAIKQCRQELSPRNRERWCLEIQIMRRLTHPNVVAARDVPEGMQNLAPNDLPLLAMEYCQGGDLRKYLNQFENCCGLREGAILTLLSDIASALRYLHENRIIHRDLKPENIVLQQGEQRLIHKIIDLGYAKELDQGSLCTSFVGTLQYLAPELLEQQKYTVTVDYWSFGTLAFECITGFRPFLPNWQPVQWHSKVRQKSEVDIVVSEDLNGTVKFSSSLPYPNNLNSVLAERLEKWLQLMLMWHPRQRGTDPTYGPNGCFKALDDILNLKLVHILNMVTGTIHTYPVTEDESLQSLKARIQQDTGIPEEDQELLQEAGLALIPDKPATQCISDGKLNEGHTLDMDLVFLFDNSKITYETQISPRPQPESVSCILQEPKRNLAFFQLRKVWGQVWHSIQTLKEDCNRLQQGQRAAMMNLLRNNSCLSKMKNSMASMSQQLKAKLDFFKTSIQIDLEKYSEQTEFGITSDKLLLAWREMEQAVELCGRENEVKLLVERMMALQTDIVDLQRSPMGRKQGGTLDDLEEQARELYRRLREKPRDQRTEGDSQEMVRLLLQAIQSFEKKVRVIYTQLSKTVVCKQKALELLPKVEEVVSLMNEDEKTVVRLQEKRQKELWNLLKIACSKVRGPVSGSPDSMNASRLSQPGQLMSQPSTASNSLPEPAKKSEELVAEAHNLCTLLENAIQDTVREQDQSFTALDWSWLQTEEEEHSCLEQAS
T1 sequence (P21802 22-821): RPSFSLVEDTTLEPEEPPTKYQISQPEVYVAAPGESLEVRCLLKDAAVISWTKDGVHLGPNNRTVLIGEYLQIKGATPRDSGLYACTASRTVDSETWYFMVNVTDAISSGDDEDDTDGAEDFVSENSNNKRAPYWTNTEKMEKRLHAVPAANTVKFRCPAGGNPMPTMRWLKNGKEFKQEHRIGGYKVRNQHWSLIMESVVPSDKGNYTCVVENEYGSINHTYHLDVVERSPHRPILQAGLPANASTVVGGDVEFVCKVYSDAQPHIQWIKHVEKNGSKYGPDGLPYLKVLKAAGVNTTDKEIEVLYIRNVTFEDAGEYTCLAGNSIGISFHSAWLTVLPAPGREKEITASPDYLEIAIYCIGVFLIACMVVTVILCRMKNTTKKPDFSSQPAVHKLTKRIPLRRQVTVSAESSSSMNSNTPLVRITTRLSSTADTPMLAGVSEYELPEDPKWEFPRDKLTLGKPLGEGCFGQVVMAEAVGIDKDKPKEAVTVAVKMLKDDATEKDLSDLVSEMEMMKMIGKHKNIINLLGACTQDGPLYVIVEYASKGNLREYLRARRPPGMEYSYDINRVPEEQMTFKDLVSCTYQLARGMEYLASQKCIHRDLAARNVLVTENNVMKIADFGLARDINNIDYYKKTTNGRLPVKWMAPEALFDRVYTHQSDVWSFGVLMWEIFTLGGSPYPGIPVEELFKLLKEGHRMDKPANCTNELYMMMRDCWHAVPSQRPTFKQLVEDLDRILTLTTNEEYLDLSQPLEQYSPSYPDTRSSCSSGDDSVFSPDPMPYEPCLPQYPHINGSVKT
T15 sequence (P07333 20-972): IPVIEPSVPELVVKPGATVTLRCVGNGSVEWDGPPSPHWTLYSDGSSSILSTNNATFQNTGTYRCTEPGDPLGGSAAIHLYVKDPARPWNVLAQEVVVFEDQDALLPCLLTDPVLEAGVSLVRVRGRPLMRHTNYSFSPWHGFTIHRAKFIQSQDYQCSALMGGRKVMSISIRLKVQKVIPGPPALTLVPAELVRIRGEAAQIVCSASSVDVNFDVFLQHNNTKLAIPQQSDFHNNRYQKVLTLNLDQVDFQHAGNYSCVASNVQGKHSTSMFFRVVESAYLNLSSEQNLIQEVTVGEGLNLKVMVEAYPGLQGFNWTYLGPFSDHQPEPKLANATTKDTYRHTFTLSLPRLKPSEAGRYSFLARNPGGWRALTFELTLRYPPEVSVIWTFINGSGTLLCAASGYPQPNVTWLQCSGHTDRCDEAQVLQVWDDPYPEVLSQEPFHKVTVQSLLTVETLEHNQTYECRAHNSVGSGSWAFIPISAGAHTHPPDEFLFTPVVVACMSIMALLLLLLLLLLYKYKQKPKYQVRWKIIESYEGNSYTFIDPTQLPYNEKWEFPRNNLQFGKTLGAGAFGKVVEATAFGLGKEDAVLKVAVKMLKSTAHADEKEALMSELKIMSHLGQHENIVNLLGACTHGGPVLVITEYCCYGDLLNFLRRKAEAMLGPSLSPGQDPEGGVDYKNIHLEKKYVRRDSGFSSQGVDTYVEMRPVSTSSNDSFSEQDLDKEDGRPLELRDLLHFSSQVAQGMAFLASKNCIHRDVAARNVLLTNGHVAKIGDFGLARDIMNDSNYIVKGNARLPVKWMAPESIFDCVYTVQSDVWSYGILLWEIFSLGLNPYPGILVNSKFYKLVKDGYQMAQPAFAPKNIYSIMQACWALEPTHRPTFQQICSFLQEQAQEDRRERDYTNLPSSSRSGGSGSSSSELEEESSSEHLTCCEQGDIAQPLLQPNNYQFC
T27 sequence (Q96GD4 whole entry): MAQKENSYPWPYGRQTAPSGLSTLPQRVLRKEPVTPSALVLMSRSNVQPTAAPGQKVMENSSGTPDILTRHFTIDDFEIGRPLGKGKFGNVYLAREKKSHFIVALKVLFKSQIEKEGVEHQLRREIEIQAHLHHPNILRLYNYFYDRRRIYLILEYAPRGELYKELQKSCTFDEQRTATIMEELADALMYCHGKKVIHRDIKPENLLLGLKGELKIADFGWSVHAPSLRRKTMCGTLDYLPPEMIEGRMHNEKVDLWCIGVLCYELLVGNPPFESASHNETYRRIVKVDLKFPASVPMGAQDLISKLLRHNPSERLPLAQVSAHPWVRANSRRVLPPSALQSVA
T17 sequence (P04049 306-648 Y340D/Y341D limits assumed): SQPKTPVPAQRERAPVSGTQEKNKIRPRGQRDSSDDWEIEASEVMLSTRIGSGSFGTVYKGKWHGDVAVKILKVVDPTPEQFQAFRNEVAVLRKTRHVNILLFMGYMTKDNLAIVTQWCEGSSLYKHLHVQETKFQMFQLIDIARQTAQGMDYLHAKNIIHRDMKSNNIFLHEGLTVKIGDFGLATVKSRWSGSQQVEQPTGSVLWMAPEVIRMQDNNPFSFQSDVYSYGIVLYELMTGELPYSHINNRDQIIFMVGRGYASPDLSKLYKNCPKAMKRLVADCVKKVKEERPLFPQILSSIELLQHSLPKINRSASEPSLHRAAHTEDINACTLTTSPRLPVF

For `CNC(=O)c1cc(Oc2ccc(NC(=O)c3cccc(OC)c3)cc2)ccn1` [YLT192], the inhibition at 1 µM [1] was 19 ± 4%, the inhibition at 1 µM [2] was -2 ± 6% and the inhibition at 1 µM [3] was -7 ± 4%. It also gave an inhibition at 1 µM [4] of -7 ± 7%, an inhibition at 1 µM [5] of -10 ± 4% and an inhibition at 1 µM [6] of -9 ± 3%. The “inhibition rate at 1 μM (%)” value [7] was 0 ± 2%, the inhibition at 1 µM [8] was 21 ± 3% and the inhibition at 1 µM [9] was 1 ± 3%. The inhibition at 1 µM [10] was 6 ± 3%, the inhibition at 1 µM [11] was 0% and the inhibition at 1 µM [12] was 4 ± 6%. The inhibition at 1 µM [13] was 3 ± 5%, the inhibition at 1 µM [14] was 3 ± 3% and the inhibition at 1 µM [15] was 1 ± 6%. The inhibition at 1 µM [16] was 35 ± 11%, the “inhibition rate at 1 μM (%)” value [17] was 0% and −6 ± 2% and the inhibition at 1 µM [18] was 3 ± 3%. It also gave an inhibition at 1 µM [19] of -4 ± 3%, an inhibition at 1 µM [20] of -1 ± 4% and an inhibition at 1 µM [21] of 5 ± 3%. The inhibition at 1 µM [22] was 7 ± 8%, the inhibition at 1 µM [23] was 2 ± 6% and the inhibition at 1 µM [24] was 4 ± 6%. It also gave an inhibition at 1 µM [25] of 23 ± 3%, an inhibition at 1 µM [26] of 0% and an inhibition at 1 µM [27] of 3 ± 6%. For the same molecule, the inhibition at 1 µM [28] was 23 ± 5%, the “apoptotic cells in the tumor tissues, TUNEL staining” value ([29]; 100 mg/kg) was “increased apoptotic cells” and the “phosphorylation of p44/42 MAPK (p-ERK) in tumor tissues” value ([29]; 100 mg/kg) was “significant decrease”. For the same molecule, the “reduction of microvessel density (MVD)” value ([29]; 100 mg/kg oral daily, anti-CD31, vs vehicle) was 69%, the “Ki67 staining in tumor tissues” value ([29]; 50 and 100 mg/kg, end of treatment) was “significant reduction” and the IC50 ([30]; range for most tumor cell lines of the panel, read-out: Most IC50 against the tumor cells) was 6 to 20 µM. The IC50 ([30]; range over the cancer cell panel, read-out: IC50 values in cancer cell viability assays) was 6 to 30 µM.
